Results: the NIST ThermoML archive (doi:10.1021/je101250d)
Values joined by “and” are separate entries in the source; they are usually repeats but may differ in a detail not shown here. Equal entries are not always repeated. Numbers after ± are expanded uncertainties.

Columns and labels:
[1] = Boiling temperature at pressure P; conditions: 101.33 kPa; Liquid; Ebulliometric method (Recirculating still)
[2] = Liquid; for mass density: 298.15 K, 101.33 kPa, Vibrating tube method
[3] = refractive index (Na D-line) (dimensionless); conditions: 298.15 K; 101.33 kPa; Liquid; Standard Abbe refractometry

Structure (SMILES): CCC(C)(C)OC [2-methoxy-2-methylbutane]
- Boiling temperature at pressure P [1]: 86.37 ± 0.04 °C
- mass density [2]: 765.83 ± 0.13 kg/m3
- vapor or sublimation pressure ([2]; 313.44 K): 20.01 ± 0.07 kPa
- vapor or sublimation pressure ([2]; 318.99 K): 25.01 ± 0.07 kPa
- vapor or sublimation pressure ([2]; 323.68 K): 30.01 ± 0.08 kPa
- vapor or sublimation pressure ([2]; 327.77 K): 35.01 ± 0.08 kPa
- vapor or sublimation pressure ([2]; 331.41 K): 40.01 ± 0.09 kPa
- vapor or sublimation pressure ([2]; 334.69 K): 45.01 ± 0.09 kPa
- vapor or sublimation pressure ([2]; 337.64 K): 50 ± 0.57 kPa
- vapor or sublimation pressure ([2]; 337.66 K): 50 ± 0.57 kPa
- vapor or sublimation pressure ([2]; 337.69 K): 50.01 ± 0.09 kPa
- vapor or sublimation pressure ([2]; 340.46 K): 55.01 ± 0.1 kPa
- vapor or sublimation pressure ([2]; 343.03 K): 60.01 ± 0.1 kPa
- vapor or sublimation pressure ([2]; 345.89 K): 66.01 ± 0.11 kPa
- vapor or sublimation pressure ([2]; 348.97 K): 73.01 ± 0.11 kPa
- vapor or sublimation pressure ([2]; 349.73 K): 75 ± 1.1 kPa
- vapor or sublimation pressure ([2]; 349.8 K): 75 ± 1.1 kPa
- vapor or sublimation pressure ([2]; 351.84 K): 80.01 ± 0.12 kPa
- vapor or sublimation pressure ([2]; 354.52 K): 87.01 ± 0.13 kPa
- vapor or sublimation pressure ([2]; 356.92 K): 94 ± 1.5 kPa
- vapor or sublimation pressure ([2]; 357.02 K): 94.01 ± 0.13 kPa
- vapor or sublimation pressure ([2]; 357.04 K): 94 ± 1.5 kPa
- vapor or sublimation pressure ([2]; 359.95 K): 102.73 ± 0.14 kPa
- refractive index [3]: 1.38712 ± 0.00031

Structure (SMILES): CCC(C)O (stereo not given) [butan-2-ol]
- mass density [2]: 802.98 ± 0.11 kg/m3
- vapor or sublimation pressure ([2]; 334.83 K): 20.01 ± 0.08 kPa
- vapor or sublimation pressure ([2]; 339.42 K): 25.01 ± 0.08 kPa
- vapor or sublimation pressure ([2]; 343.31 K): 30.01 ± 0.08 kPa
- vapor or sublimation pressure ([2]; 346.69 K): 35.01 ± 0.09 kPa
- vapor or sublimation pressure ([2]; 349.69 K): 40.01 ± 0.09 kPa
- vapor or sublimation pressure ([2]; 352.38 K): 45.01 ± 0.1 kPa
- vapor or sublimation pressure ([2]; 354.84 K): 50.01 ± 0.11 kPa
- vapor or sublimation pressure ([2]; 354.91 K): 50 ± 0.47 kPa
- vapor or sublimation pressure ([2]; 355.12 K): 50 ± 0.47 kPa
- vapor or sublimation pressure ([2]; 357.11 K): 55.01 ± 0.11 kPa
- vapor or sublimation pressure ([2]; 359.21 K): 60.01 ± 0.12 kPa
- vapor or sublimation pressure ([2]; 361.55 K): 66.01 ± 0.12 kPa
- vapor or sublimation pressure ([2]; 364.08 K): 73.01 ± 0.13 kPa
- vapor or sublimation pressure ([2]; 364.8 K): 75 ± 0.9 kPa
- vapor or sublimation pressure ([2]; 365.2 K): 75 ± 0.9 kPa
- vapor or sublimation pressure ([2]; 366.4 K): 80.01 ± 0.14 kPa
- vapor or sublimation pressure ([2]; 368.58 K): 87.01 ± 0.15 kPa
- vapor or sublimation pressure ([2]; 370.61 K): 94.01 ± 0.16 kPa
- vapor or sublimation pressure ([2]; 370.66 K): 94 ± 1.2 kPa
- vapor or sublimation pressure ([2]; 371.17 K): 94 ± 1.2 kPa
- refractive index [3]: 1.39676 ± 0.00031

Structure (SMILES): CCCCCCC [heptane]
- Boiling temperature at pressure P [1]: 98.4 ± 0.04 °C
- mass density [2]: 679.55 ± 0.16 kg/m3
- vapor or sublimation pressure ([2]; 319.06 K): 16.01 ± 0.07 kPa
- vapor or sublimation pressure ([2]; 329.07 K): 24.01 ± 0.07 kPa
- vapor or sublimation pressure ([2]; 334.91 K): 30.01 ± 0.08 kPa
- vapor or sublimation pressure ([2]; 339.08 K): 35.01 ± 0.08 kPa
- vapor or sublimation pressure ([2]; 342.78 K): 40.01 ± 0.09 kPa
- vapor or sublimation pressure ([2]; 346.14 K): 45.01 ± 0.09 kPa
- vapor or sublimation pressure ([2]; 349.19 K): 50.01 ± 0.09 kPa and 50 ± 0.57 kPa
- vapor or sublimation pressure ([2]; 349.24 K): 50 ± 0.57 kPa
- vapor or sublimation pressure ([2]; 352.01 K): 55.01 ± 0.1 kPa
- vapor or sublimation pressure ([2]; 354.63 K): 60.01 ± 0.1 kPa
- vapor or sublimation pressure ([2]; 357.1 K): 65.01 ± 0.11 kPa
- vapor or sublimation pressure ([2]; 359.42 K): 70.01 ± 0.11 kPa
- vapor or sublimation pressure ([2]; 361.59 K): 75.01 ± 0.11 kPa
- vapor or sublimation pressure ([2]; 361.6 K): 75 ± 1.1 kPa
- vapor or sublimation pressure ([2]; 361.66 K): 75 ± 1.1 kPa
- vapor or sublimation pressure ([2]; 363.67 K): 80.01 ± 0.12 kPa
- vapor or sublimation pressure ([2]; 366.41 K): 87.01 ± 0.12 kPa
- vapor or sublimation pressure ([2]; 368.98 K): 94 ± 1.5 kPa
- vapor or sublimation pressure ([2]; 368.99 K): 94.01 ± 0.13 kPa
- vapor or sublimation pressure ([2]; 369.04 K): 94 ± 1.5 kPa
- vapor or sublimation pressure ([2]; 371.63 K): 101.74 ± 0.14 kPa
- refractive index [3]: 1.38668 ± 0.00031
